Assay results reported in PubChem BioAssay (NCI).
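Five concentrations, 48 hours, 96-well plates. Here, GI50 denotes the concentration required for 50% inhibition of growth. TGI denotes the concentration required for complete inhibition of growth.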

System: NCI-H23 lung
Experiment: NCI anticancer screen, dose series, 48 h

| Structure (SMILES) | GI50 | TGI |
| --- | --- | --- |
| COc1nc2ccccc2cc1-c1nc2c(cnn2-c2ccc(Br)cc2)c(=O)[nH]1 | 82.5 nM | 10.9 µM |
| CCN(CC)C(=S)N/N=C(/C)c1cccc(/C(C)=N\NC(=S)N(CC)CC)n1 | – | 19.2 µM |
| COc1cc(-c2ccc3c(c2)NC(=O)/C3=C\c2ccc[nH]2)ccc1O | 66.2 nM | > 50 µM |
| O=C(NC1=CC(=O)c2ccccc2C1=O)c1ccccc1 | 1120 nM | 9.5 µM |

System: NCI-H460 lung
Experiment: NCI anticancer screen, dose series, 48 h

| Structure (SMILES) | GI50 | TGI |
| --- | --- | --- |
| COc1nc2ccccc2cc1-c1nc2c(cnn2-c2ccc(Br)cc2)c(=O)[nH]1 | 24.1 nM | > 50 µM |
| CCN(CC)C(=S)N/N=C(/C)c1cccc(/C(C)=N\NC(=S)N(CC)CC)n1 | – | 6.36 µM |
| COc1cc(-c2ccc3c(c2)NC(=O)/C3=C\c2ccc[nH]2)ccc1O | 19.4 nM | > 50 µM |
| O=C(NC1=CC(=O)c2ccccc2C1=O)c1ccccc1 | 643 nM | 13.1 µM |

System: NCI-H522 lung
Experiment: NCI anticancer screen, dose series, 48 h

| Structure (SMILES) | GI50 | TGI |
| --- | --- | --- |
| COc1nc2ccccc2cc1-c1nc2c(cnn2-c2ccc(Br)cc2)c(=O)[nH]1 | 15.3 nM | – |
| CCN(CC)C(=S)N/N=C(/C)c1cccc(/C(C)=N\NC(=S)N(CC)CC)n1 | – | 16 µM |
| COc1cc(-c2ccc3c(c2)NC(=O)/C3=C\c2ccc[nH]2)ccc1O | 7.47 nM | > 50 µM |
| O=C(NC1=CC(=O)c2ccccc2C1=O)c1ccccc1 | 702 nM | 2.76 µM |

System: NCI/ADR-RES ovarian
Experiment: NCI anticancer screen, dose series, 48 h

| Structure (SMILES) | GI50 | TGI |
| --- | --- | --- |
| COc1nc2ccccc2cc1-c1nc2c(cnn2-c2ccc(Br)cc2)c(=O)[nH]1 | 18.6 nM | 1.58 µM |
| CCN(CC)C(=S)N/N=C(/C)c1cccc(/C(C)=N\NC(=S)N(CC)CC)n1 | – | 10.5 µM |
| COc1cc(-c2ccc3c(c2)NC(=O)/C3=C\c2ccc[nH]2)ccc1O | 17.7 nM | > 50 µM |
| O=C(NC1=CC(=O)c2ccccc2C1=O)c1ccccc1 | 1260 nM | 14.9 µM |

System: OVCAR-3 ovarian
Experiment: NCI anticancer screen, dose series, 48 h

| Structure (SMILES) | GI50 | TGI |
| --- | --- | --- |
| COc1nc2ccccc2cc1-c1nc2c(cnn2-c2ccc(Br)cc2)c(=O)[nH]1 | 17.1 nM | 219 nM |
| CCN(CC)C(=S)N/N=C(/C)c1cccc(/C(C)=N\NC(=S)N(CC)CC)n1 | – | 7440 nM |
| COc1cc(-c2ccc3c(c2)NC(=O)/C3=C\c2ccc[nH]2)ccc1O | 17.6 nM | > 50000 nM |
| O=C(NC1=CC(=O)c2ccccc2C1=O)c1ccccc1 | 685 nM | 2010 nM |

System: OVCAR-4 ovarian
Experiment: NCI anticancer screen, dose series, 48 h

| Structure (SMILES) | TGI | GI50 |
| --- | --- | --- |
| COc1nc2ccccc2cc1-c1nc2c(cnn2-c2ccc(Br)cc2)c(=O)[nH]1 | > 50 µM | – |
| CCN(CC)C(=S)N/N=C(/C)c1cccc(/C(C)=N\NC(=S)N(CC)CC)n1 | 7.32 µM | – |
| COc1cc(-c2ccc3c(c2)NC(=O)/C3=C\c2ccc[nH]2)ccc1O | > 50 µM | 2580 nM |
| O=C(NC1=CC(=O)c2ccccc2C1=O)c1ccccc1 | 2.26 µM | 1040 nM |

System: OVCAR-5 ovarian
Experiment: NCI anticancer screen, dose series, 48 h

| Structure (SMILES) | GI50 | TGI |
| --- | --- | --- |
| COc1nc2ccccc2cc1-c1nc2c(cnn2-c2ccc(Br)cc2)c(=O)[nH]1 | 798 nM | > 50 µM |
| CCN(CC)C(=S)N/N=C(/C)c1cccc(/C(C)=N\NC(=S)N(CC)CC)n1 | – | 20.8 µM |
| COc1cc(-c2ccc3c(c2)NC(=O)/C3=C\c2ccc[nH]2)ccc1O | 799 nM | > 50 µM |
| O=C(NC1=CC(=O)c2ccccc2C1=O)c1ccccc1 | 1180 nM | 15.5 µM |

System: OVCAR-8 ovarian
Experiment: NCI anticancer screen, dose series, 48 h

| Structure (SMILES) | GI50 | TGI |
| --- | --- | --- |
| COc1nc2ccccc2cc1-c1nc2c(cnn2-c2ccc(Br)cc2)c(=O)[nH]1 | 57.7 nM | > 50 µM |
| CCN(CC)C(=S)N/N=C(/C)c1cccc(/C(C)=N\NC(=S)N(CC)CC)n1 | – | 3.19 µM |
| COc1cc(-c2ccc3c(c2)NC(=O)/C3=C\c2ccc[nH]2)ccc1O | 25.2 nM | > 50 µM |
| O=C(NC1=CC(=O)c2ccccc2C1=O)c1ccccc1 | 1670 nM | 5.63 µM |

System: PC-3 prostate
Experiment: NCI anticancer screen, dose series, 48 h

| Structure (SMILES) | GI50 | TGI |
| --- | --- | --- |
| COc1nc2ccccc2cc1-c1nc2c(cnn2-c2ccc(Br)cc2)c(=O)[nH]1 | 23.1 nM | > 50 µM |
| CCN(CC)C(=S)N/N=C(/C)c1cccc(/C(C)=N\NC(=S)N(CC)CC)n1 | – | 17 µM |
| COc1cc(-c2ccc3c(c2)NC(=O)/C3=C\c2ccc[nH]2)ccc1O | 22.8 nM | > 50 µM |
| O=C(NC1=CC(=O)c2ccccc2C1=O)c1ccccc1 | 421 nM | 2.44 µM |

System: RPMI-8226 leukemia
Experiment: NCI anticancer screen, dose series, 48 h

| Structure (SMILES) | GI50 | TGI |
| --- | --- | --- |
| COc1nc2ccccc2cc1-c1nc2c(cnn2-c2ccc(Br)cc2)c(=O)[nH]1 | 40.2 nM | 6.79 µM |
| CCN(CC)C(=S)N/N=C(/C)c1cccc(/C(C)=N\NC(=S)N(CC)CC)n1 | – | 6.17 µM |
| COc1cc(-c2ccc3c(c2)NC(=O)/C3=C\c2ccc[nH]2)ccc1O | 22.8 nM | > 16.2 µM |
| O=C(NC1=CC(=O)c2ccccc2C1=O)c1ccccc1 | 355 nM | > 100 µM |

System: RXF 393 renal
Experiment: NCI anticancer screen, dose series, 48 h

| Structure (SMILES) | GI50 | TGI |
| --- | --- | --- |
| COc1nc2ccccc2cc1-c1nc2c(cnn2-c2ccc(Br)cc2)c(=O)[nH]1 | 16.3 nM | 245 nM |
| CCN(CC)C(=S)N/N=C(/C)c1cccc(/C(C)=N\NC(=S)N(CC)CC)n1 | – | 7030 nM |
| COc1cc(-c2ccc3c(c2)NC(=O)/C3=C\c2ccc[nH]2)ccc1O | 23.4 nM | 1660 nM |
| O=C(NC1=CC(=O)c2ccccc2C1=O)c1ccccc1 | 1400 nM | 3120 nM |

System: SF-268 CNS
Experiment: NCI anticancer screen, dose series, 48 h

| Structure (SMILES) | GI50 | TGI |
| --- | --- | --- |
| COc1nc2ccccc2cc1-c1nc2c(cnn2-c2ccc(Br)cc2)c(=O)[nH]1 | 131 nM | > 50 µM |
| CCN(CC)C(=S)N/N=C(/C)c1cccc(/C(C)=N\NC(=S)N(CC)CC)n1 | – | 7.47 µM |
| COc1cc(-c2ccc3c(c2)NC(=O)/C3=C\c2ccc[nH]2)ccc1O | 377 nM | > 50 µM |
| O=C(NC1=CC(=O)c2ccccc2C1=O)c1ccccc1 | 1210 nM | 13.8 µM |

System: SF-295 CNS
Experiment: NCI anticancer screen, dose series, 48 h

| Structure (SMILES) | GI50 | TGI |
| --- | --- | --- |
| COc1nc2ccccc2cc1-c1nc2c(cnn2-c2ccc(Br)cc2)c(=O)[nH]1 | 19.5 nM | 1.62 µM |
| CCN(CC)C(=S)N/N=C(/C)c1cccc(/C(C)=N\NC(=S)N(CC)CC)n1 | – | 6.7 µM |
| COc1cc(-c2ccc3c(c2)NC(=O)/C3=C\c2ccc[nH]2)ccc1O | 47.9 nM | > 22.6 µM |
| O=C(NC1=CC(=O)c2ccccc2C1=O)c1ccccc1 | 2000 nM | 7.73 µM |

System: SF-539 CNS
Experiment: NCI anticancer screen, dose series, 48 h

| Structure (SMILES) | GI50 | TGI |
| --- | --- | --- |
| COc1nc2ccccc2cc1-c1nc2c(cnn2-c2ccc(Br)cc2)c(=O)[nH]1 | 19.4 nM | 1630 nM |
| CCN(CC)C(=S)N/N=C(/C)c1cccc(/C(C)=N\NC(=S)N(CC)CC)n1 | – | 3280 nM |
| COc1cc(-c2ccc3c(c2)NC(=O)/C3=C\c2ccc[nH]2)ccc1O | 15.6 nM | 236 nM |
| O=C(NC1=CC(=O)c2ccccc2C1=O)c1ccccc1 | 284 nM | 913 nM |

System: SK-MEL-2 melanoma
Experiment: NCI anticancer screen, dose series, 48 h

| Structure (SMILES) | GI50 | TGI |
| --- | --- | --- |
| COc1nc2ccccc2cc1-c1nc2c(cnn2-c2ccc(Br)cc2)c(=O)[nH]1 | 94.6 nM | 9.22 µM |
| CCN(CC)C(=S)N/N=C(/C)c1cccc(/C(C)=N\NC(=S)N(CC)CC)n1 | – | 20.3 µM |
